# Experimental data as given in patent publication US20190307741A1, “[…] PD1 AND/OR PDL1 INHIBITOR AS PHARMACEUTICAL COMBINATION” (priority 2016, published 2019).
# Test system: orthotopic MBT-2 mouse bladder tumors
# Test: Antitumour activity (survival) in C3H/HEJ mice bearing orthotopic MBT-2 mouse bladder tumors
# Assay type: in vivo
# Conditions: female C3H/HeJ mice, vinflunine ditartrate 12 mg/kg IP (Q2D×3)×2W
# Experimental: The antitumour activity of vinflunine alone or in combination with an anti-PD1 antibody was evaluated in C3H/HEJ mice bearing orthotopic MBT-2 mouse bladder tumors.
# Vinflunine ditartrate is administered to mice at a concentration of 1.2 mg/ml in a saline buffer (0.9% NaCl).
# The anti-PD1 antibody (clone: RMP1-14, catalog: BE0146, B/N: 5311-10/0914B, Bioxcell), is administered to mice at a concentration of 1 mg/ml in PBS. […] 2005 Aug. 1; 175(3):1586-92.
# Vinflunine ditartrate has been injected at 12 mg/kg,
# The anti-PD1 antibody has been injected at 10 mg/kg/inj.
# Vinflunine ditartrate and the anti-PD1 antibody have been administered at a dose volume of 10 ml/kg/adm (i.e for one mouse weighing 20 g, 200 μl has been administered).
# Vinflunine ditartrate has been injected intraperitoneally (IP) into the peritoneal cavity of mice.
# The anti-PD-1 antibody has been injected intraperitoneally (IP) into the peritoneal cavity of mice. […]
# Tumor cells have been e grown as monolayer at 37° C. in a humidified atmosphere (5% CO2, 95% air). […] The cells have been counted in a hemocytometer and their viability has been assessed by 0.25% trypan blue exclusion assay. […]
# Antitumour activity of vinflunine ditartrate alone, anti-PD1 antibody alone or of the combination was evaluated against MBT-2 cells orthotopically implanted by instillation C3H/HEJ mice. […]
substance,measurement,setting,value
"20′,20′-difluoro-3′,4′-dihydrovinorelbine [vinflunine]",ILS: Increase of Life Span (compared to vehicle) (%),"ILS=T/C−100 (median day of death treated/control), anti-PD1 10 mg/kg/inj IP TW×2",46%
same,Survival gain (compared to vehicle) Median,"anti-PD1 antibody 10 mg/kg/inj IP TW×2, treatment from D3, relative to vehicle",10 days
